Experimental data taken from patent US5215991A, “Combination of selective alpha-adrenergic agonists and Na^+ /H^+ e x” (priority 1990, dated 1993).

Assays:
[1] = test system: New Zealand White rabbits with normotensive IOP; assay: Intraocular pressure (IOP) after topical ocular administration in normotensive New Zealand White rabbits; type: in vivo, New Zealand White rabbit; conditions: for ΔIOP at 1 Hr., (X + p) / ΔIOP at 3 Hr., (X + p): Na+/H+ inhibitor X (1%) followed 30 min later by p-amino clonidine (0.1%), mean change from pre-drug level; for ΔIOP at 1 Hr., (X + p): 1 hour post p-amino clonidine; for ΔIOP at 3 Hr., (X + p): 3 hours post p-amino clonidine; for IOP change, amiloride analog administered alone: amiloride analogs alone, Example 2; for ΔIOP at 1 Hr., (X + p) - p / ΔIOP at 3 Hr., (X + p) - p: difference between X (1%) + p-amino clonidine (0.1%) and p-amino clonidine alone; for ocular hypotensive response to the alpha2 agonist after pretreatment with the Na+/H+ exchange inhibitor: pretreatment with Na+/H+ exchange inhibitor (1%) 30 min before the alpha2 agonist, FIGS. 2-4
Method: Ocular co-administration of an alpha2 agonist and a Na^+ /H^+ exchange inhibitor to effect lowering of IOP was experimentally tested in the New Zealand White rabbit.
The effect of co-administrating of alpha2 agonists and a Na^+ /H^+ exchange inhibitor on lowering IOP was testing in New Zealand White rabbits with normotensive IOP and weighing 3-4 kg. Topical anesthesia was produced by instillation of about 5 μl of […].
Separate solution of various alpha2 agonists and a Na^+ /H^+ exchange inhibitor were prepared by dissolving the specified quantity of agonists or the Na^+ /H^+ exchange inhibitor in distilled water to obtain the concentrations shown below in Table III. The pH of the final solutions ranged from about 4 to about 7.5 as indicated by the characteristics of the individual drugs.
The animals were divided into 2 groups. One group was treated with the Na^+ /H^+ exchange inhibitor followed by an alpha2 agonist and the other group received vehicle followed by the alpha2 agonist. Intraocular pressure (IOP) was measured in both eyes for each animal using a calibrated DIGILAB® pneumatonograph. […] Thirty minutes after application of the Na^+ /H^+ exchange inhibitor or vehicle, IOP was again measured for the eye. Immediately following these measurements, 50 μl of one of the alpha2 agonists solution given in Table III was administered to the test eye in the same manner described above. Thereafter, IOP measurements for each eye of each animal were made at 30 minutes after administration of the alpha2 agonist, then hourly for 6 hours. In separate experiments, the IOP response to the Na^+ /H^+ exchange inhibitor alone was determined.
In another series of experiments, carried out in substantially the same manner as set forth in Example 1, various amiloride analogs with varying potencies at inhibiting Na^+ /H^+ exchange were co-administered with an alpha2 agonist, p-amino clonidine, and IOP determine. […] The data are expressed as mean changes from pre-drug levels.

Na^+ /H^+ exchange = conditions: inhibition of Na+/H+ exchange in human neutrophils; data taken from Simchowitz and Cragoe, Mol. Pharmacol. 30, 112-120, 1986; cited from earlier work

CN(C)c1nc(N)c(C(=O)N=C(N)N)nc1Cl [5-(N,N-dimethyl) amiloride]
ΔIOP at 1 Hr., (X + p) [1]: +1.8 mmHg
ΔIOP at 3 Hr., (X + p) [1]: +0.7 mmHg
IOP change, amiloride analog administered alone [1]: substantially inactive
ΔIOP at 1 Hr., (X + p) - p [1]: -1.2 mmHg
ΔIOP at 3 Hr., (X + p) - p [1]: -1.9 mmHg
Ki (Na^+ /H^+ exchange): 6.9 µM

NC(N)=NC(=O)c1nc(Cl)c(N2CCCCCC2)nc1N [5-(N,N-hexamethylene) amiloride]
ΔIOP at 1 Hr., (X + p) [1]: -8.6 mmHg
ΔIOP at 3 Hr., (X + p) [1]: -7.5 mmHg
IOP change, amiloride analog administered alone [1]: substantially inactive
ΔIOP at 1 Hr., (X + p) - p [1]: -11.6 mmHg
ΔIOP at 3 Hr., (X + p) - p [1]: -10.1 mmHg
Ki (Na^+ /H^+ exchange): 0.16 µM

CCN(c1nc(N)c(C(=O)N=C(N)N)nc1Cl)C(C)C [5-(N-ethyl-N-isopropyl) amiloride]
ΔIOP at 1 Hr., (X + p) [1]: -7.2 mmHg
ΔIOP at 3 Hr., (X + p) [1]: -5.7 mmHg
IOP change, amiloride analog administered alone [1]: substantially inactive
ΔIOP at 1 Hr., (X + p) - p [1]: -10.2 mmHg
ΔIOP at 3 Hr., (X + p) - p [1]: -7.4 mmHg
IOP response to the Na+/H+ exchange inhibitor alone ([1]; three concentrations (0.1, 0.3, 1%), topical, FIG. 1): did not significantly alter IOP
Ki (Na^+ /H^+ exchange): 0.36 µM

Brc1c(NC2=NCCN2)ccc2nccnc12 [5-bromo-6-(2-imidazolidine-2-ylamino)quinoxaline]
ocular hypotensive response to the alpha2 agonist after pretreatment with the Na+/H+ exchange inhibitor [1]: augmented

N=C(N)NC(=O)c1nc(Cl)c(N)nc1N [Amiloride]
ΔIOP at 1 Hr., (X + p) [1]: +3.0 mmHg
ΔIOP at 3 Hr., (X + p) [1]: +2.6 mmHg
ΔIOP at 1 Hr., (X + p) - p [1]: +0.2 mmHg
ΔIOP at 3 Hr., (X + p) - p [1]: +0.6 mmHg
Ki (Na^+ /H^+ exchange): 83.8 µM

Clc1cccc(Cl)c1N=C1NCCN1 [clonidine]
ocular hypotensive response to the alpha2 agonist after pretreatment with the Na+/H+ exchange inhibitor [1]: augmented

Nc1cc(Cl)c(NC2=NCCN2)c(Cl)c1 [p-amino clonidine, p-aminoclonidine]
ocular hypotensive response to the alpha2 agonist after pretreatment with the Na+/H+ exchange inhibitor [1]: augmented
